Read-outs that look alike come from different tables or passages of the source.
Tests used:
[1] = biological target: DCN1 (DCUND1) protein PONY domain (Homo sapiens (Human), UniProt Q96GG9); assay: TR-FRET assay, DCN1 binding with FAM-labeled probe
Summary of the method: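 Binding was read as the TR-FRET ratio between a FAM-tagged inhibitor probe and Tb-labeled biotinylated E. coli-expressed DCN1 PONY domain, measured 1, 5 and 24 h after compound addition. The two setups used 5 nM protein/20 nM FAM-probe or 0.31 nM protein/900 nM total probe (100 nM labeled), in TritonX buffer with 200 mM NaCl.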

[2] = system: Cullin-3 (CUL3) neddylation; assay: AlphaLISA assay for Cullin-3 (CUL3) neddylation in TF 1 cells; type: cell-based; conditions: Homo sapiens, 3 hours treatment
Summary of the method: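 Neddylated CUL3 was quantified by AlphaLISA in lysates of TF 1 cells exposed for 3 h to test compound in IMDM without supplements. Percent inhibition set between vehicle and 1 μM DI-1548 positive control; IC50 derived by Hill-equation fitting of dose-response curves.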

DCN1 protein = DCN1 protein (Homo sapiens (Human), UniProt Q96GG9); assay: Intact Protein MS Analysis with the RapidFire-TOF System (covalent adduct formation); type: binding; conditions: MS Emax; 400 nM DCN1, 3 hours at room temperature
Sequence of DCN1 protein (Q96GG9 whole entry): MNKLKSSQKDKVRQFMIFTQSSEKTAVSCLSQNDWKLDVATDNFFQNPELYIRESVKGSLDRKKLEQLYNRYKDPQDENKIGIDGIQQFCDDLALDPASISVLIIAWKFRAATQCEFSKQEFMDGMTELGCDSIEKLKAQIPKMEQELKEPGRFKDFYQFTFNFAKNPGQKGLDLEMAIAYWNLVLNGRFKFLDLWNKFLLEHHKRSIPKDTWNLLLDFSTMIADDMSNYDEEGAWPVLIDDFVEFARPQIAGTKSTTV
Summary of the method: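 Tag-cleaved human DCN1 (400 nM) expressed in E. coli, in 25 mM Tris-HCl, 200 mM NaCl, 1 mM DTT, was incubated with 11 compound concentrations for 3 h at room temperature and quenched with 0.2% formic acid. Intact-protein Q-TOF MS with deconvolution detected the compound adduct mass.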

[3] = 24 hr after treatment with compound, read-out: TR FRET IC50 24 hr
[4] = read-out: TR FRET IC50 1 hr, 1 hr after treatment with compound
[5] = TR FRET IC50 1 hr (nM), 1 hr after treatment with compound

Sequence of DCN1 (DCUND1) protein PONY domain (Q96GG9 60-248): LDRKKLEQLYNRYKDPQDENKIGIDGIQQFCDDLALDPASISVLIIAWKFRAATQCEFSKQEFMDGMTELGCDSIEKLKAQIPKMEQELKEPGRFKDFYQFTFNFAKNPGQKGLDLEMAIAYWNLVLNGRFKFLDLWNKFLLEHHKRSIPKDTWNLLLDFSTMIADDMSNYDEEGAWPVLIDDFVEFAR

Row | Structure (SMILES) | IC50 [1, 3] [nM] | IC50 [1, 4] [nM] | IC50 ([2]; TF-1, 3 h) [nM] | % Adduct Formation (DCN1 protein) | IC50 [2] [nM] | IC50 [1, 5] [nM]
1 | CCN1C(=O)[C@@H](NC(=O)c2cccc(C(F)(F)F)c2)[C@@H](c2ccc(F)cc2)c2c([C@@H](CN(C)C)NC#N)nn(-c3ccccc3)c21 (mixture of isomers) [Compound I-272] | ≤ 200 | ≤ 200 | ≤ 100 | +++ (MS Emax % adduct formation greater than 80.0 and less than or equal to 100.0) |  | 
2 | CCN1C(=O)[C@@H](NC(=O)c2cccc(C(F)(F)F)c2)[C@@H](c2ccc(F)cc2)c2c(C(=O)N(CC#N)CCCN(C)C)nn(-c3ccccc3)c21 (racemic) [Compound I-271] | ≤ 200 | ≤ 200 | ≤ 100 | +++ (MS Emax % adduct formation greater than 80.0 and less than or equal to 100.0) |  | 
3 | CCN1C(=O)[C@@H](NC(=O)c2cccc(C(F)(F)F)c2)[C@@H](c2ccc(F)cc2)c2c(C(=O)N3[C@H](C#N)C[C@H]4C[C@H]43)nn(C3CCOCC3)c21 [Compound I-329] | ≤ 200 | ≤ 200 | ≤ 100 | +++ (MS Emax % adduct formation greater than 80.0 and less than or equal to 100.0) |  | 
4 | CCN1C(=O)[C@@H](NC(=O)c2cccc(C(F)(F)F)c2)[C@@H](c2ccc(F)cc2)c2c(C(=O)N3CCC[C@H]3C#N)nn(C3CC3)c21 [Compound I-354] | ≤ 200 | ≤ 200 | ≤ 100 | ++ (MS Emax % adduct formation greater than 30.0 and less than or equal to 80.0) |  | 
5 | CCN1C(=O)[C@@H](NC(=O)c2cccc(C(F)(F)F)c2)[C@@H](c2ccc(F)cc2)c2c(C(=O)N(C)[C@H](C#N)CCN(C)C3COC3)nn(-c3ccccc3)c21 [Compound I-310] | ≤ 200 | ≤ 200 | ≤ 100 | +++ (MS Emax % adduct formation greater than 80.0 and less than or equal to 100.0) |  | 
6 | CCN1C(=O)[C@@H](NC(=O)c2cccc(OC)c2)[C@@H](C2CC2)c2c(C(=O)N3[C@H](C#N)C[C@H]4C[C@H]43)nn(C3CCOCC3)c21 [Compound I-395] | ≤ 200 | ≤ 200 |  | +++ (MS Emax % adduct formation greater than 80.0 and less than or equal to 100.0) | ≤ 100 | 
7 | N#C[C@@H]1C[C@H]2C[C@H]2N1C(=O)c1nn(C2CCOCC2)c2c1[C@H](C1CC1)[C@H](NC(=O)c1cccc(C(F)(F)F)c1)C(=O)N2 (mixture of isomers) [Compound I-385] | ≤ 200 |  | ≤ 100 | +++ (MS Emax % adduct formation greater than 80.0 and less than or equal to 100.0) |  | 1000 to 3000
8 | CCCn1nc(C(=O)N(CC#N)C2CC2)c2c1N(CC)C(=O)[C@@H](NC(=O)c1cccc(C(F)(F)F)c1)[C@H]2c1ccc(F)cc1 [Compound I-356] | ≤ 200 |  | ≤ 100 | +++ (MS Emax % adduct formation greater than 80.0 and less than or equal to 100.0) |  | 200 to 1000
9 | CCN1C(=O)[C@@H](NC(=O)c2cccc(C(F)(F)F)c2)[C@@H](c2ccc(F)cc2)c2c(C(=O)N3CCC[C@H]3C#N)nn(-c3cccc(OCCCN4CCC5(CC4)COC5)c3)c21 [Compound I-336] | ≤ 200 | ≤ 200 | ≤ 100 | +++ (MS Emax % adduct formation greater than 80.0 and less than or equal to 100.0) |  | 
10 | CCN1C(=O)[C@@H](NC(=O)c2cccc(C(F)(F)F)c2)[C@@H](c2ccc(F)cc2)c2c(C(=O)N3CCC[C@H]3C#N)nn(-c3cccc(OCCN4CCN(C5COC5)CC4)c3)c21 [Compound I-340] | ≤ 200 | ≤ 200 | ≤ 100 | +++ (MS Emax % adduct formation greater than 80.0 and less than or equal to 100.0) |  | 
11 | C=C(CN1C[C@@H]2C[C@H]1CO2)C(=O)NCc1nn(-c2ccccc2)c2c1[C@H](c1ccc(F)cc1)[C@H](NC(=O)c1cccc(C(F)(F)F)c1)C(=O)N2CC (mixture of isomers) [Compound I-12] | ≤ 200 | ≤ 200 | ≤ 100 | +++ (MS Emax % adduct formation greater than 80.0 and less than or equal to 100.0) |  | 
12 | CCN1C(=O)[C@@H](NC(=O)c2cccc(C(F)(F)F)c2)[C@@H](c2ccc(F)cc2)c2c(C(=O)N(CC#N)CCN3CC4CC(C3)O4)nn(-c3ccccc3)c21 (mixture of isomers) [Compound I-322] | ≤ 200 | ≤ 200 | ≤ 100 | +++ (MS Emax % adduct formation greater than 80.0 and less than or equal to 100.0) |  | 
13 | CCN1C(=O)[C@@H](NC(=O)c2cccc(C(F)(F)F)n2)[C@@H](C2CC2)c2c(C(=O)N3[C@H](C#N)C[C@H]4C[C@H]43)nn(C3CCOCC3)c21 [Compound I-390] | ≤ 200 | ≤ 200 |  | +++ (MS Emax % adduct formation greater than 80.0 and less than or equal to 100.0) | ≤ 100 | 
14 | CCN1C(=O)[C@@H](NC(=O)c2cccc(C(F)(F)F)c2)[C@@H](c2ccc(F)cc2)c2c(C(=O)N(C)[C@H](C#N)CCN3CCOCC3)nn(-c3ccccc3)c21 [Compound I-308] | ≤ 200 | ≤ 200 | ≤ 100 | +++ (MS Emax % adduct formation greater than 80.0 and less than or equal to 100.0) |  | 
15 | CCN1C(=O)[C@@H](NC(=O)c2cccc(C(F)(F)F)c2)[C@@H](c2ccc(F)cc2)c2c(C(=O)N3CCOC[C@H]3C#N)nn(-c3ccccc3)c21 [Compound I-276] | ≤ 200 |  | ≤ 100 | +++ (MS Emax % adduct formation greater than 80.0 and less than or equal to 100.0) |  | 200 to 1000
16 | CCN1C(=O)[C@@H](NC(=O)c2cccc(C(F)(F)F)c2)[C@@H](c2ccc(F)cc2)c2c(C(=O)N(CC#N)C3CC3)nn(-c3ccccc3)c21 (stereo in doubt) [Compound I-284] | ≤ 200 | ≤ 200 | ≤ 100 | +++ (MS Emax % adduct formation greater than 80.0 and less than or equal to 100.0) |  | 
17 | CCN1C(=O)[C@@H](NC(=O)c2cccc(C(F)(F)F)c2)[C@@H](c2ccc(F)cc2)c2c(C(=O)N(C)[C@H](C)C#N)nn(C3CCOCC3)c21 [Compound I-367] | ≤ 200 | ≤ 200 | ≤ 100 | +++ (MS Emax % adduct formation greater than 80.0 and less than or equal to 100.0) |  | 
18 | CCN1C(=O)[C@@H](NC(=O)c2cccc(C(F)(F)F)c2)[C@@H](c2ccc(F)cc2)c2c(NC(=O)CC#N)nn(-c3ccccc3)c21 (racemic) [Compound I-80] | 1000 to 3000 |  | ≤ 100 | + (MS Emax % adduct formation greater than or equal to 0.0 and less than or equal to 30.0) |  | 1000 to 3000
19 | CCN1C(=O)[C@@H](NC(=O)c2cccc(C(F)(F)F)c2)[C@@H](c2ccc(F)cc2)c2c(C(=O)N3CCC[C@H]3C#N)nn(-c3cccc(OCCCN4CCOCC4)c3)c21 [Compound I-338] | ≤ 200 |  | ≤ 100 | +++ (MS Emax % adduct formation greater than 80.0 and less than or equal to 100.0) |  | 1000 to 3000
20 | CCN1C(=O)[C@@H](NC(=O)c2cccc(C(F)(F)F)c2)[C@@H](c2ccc(F)cc2)c2c(C(=O)N(C)[C@@H](C#N)C3COC3)nn(-c3ccccc3)c21 (single isomer, unassigned) [Compound I-291] | ≤ 200 | ≤ 200 | ≤ 100 | +++ (MS Emax % adduct formation greater than 80.0 and less than or equal to 100.0) |  | 
21 | CCN1C(=O)[C@@H](NC(=O)c2cccc(C(F)(F)F)c2)[C@@H](c2ccc(F)cc2)c2c(C(=O)N(C)[C@H](C#N)CCN3CCN(C4COC4)CC3)nn(-c3ccccc3)c21 [Compound I-316] | ≤ 200 | ≤ 200 | ≤ 100 | +++ (MS Emax % adduct formation greater than 80.0 and less than or equal to 100.0) |  | 
22 | CCCn1nc(C(=O)N2[C@H](C#N)C[C@H]3C[C@H]32)c2c1N(CC)C(=O)[C@@H](NC(=O)c1cccc(C(F)(F)F)c1)[C@H]2c1ccc(F)cc1 [Compound I-331] | ≤ 200 | ≤ 200 | ≤ 100 | +++ (MS Emax % adduct formation greater than 80.0 and less than or equal to 100.0) |  | 
23 | CCN1C(=O)[C@H](NC(=O)c2cccc(C(F)(F)F)c2)[C@H](c2ccc(F)cc2)c2c(C(=O)N3CCOCC3C#N)nn(-c3ccccc3)c21 (single isomer, unassigned) [Compound I-296] | ≤ 200 |  | ≤ 100 | ++ (MS Emax % adduct formation greater than 30.0 and less than or equal to 80.0) |  | 1000 to 3000
24 | CCN1C(=O)[C@@H](NC(=O)c2cccc(C(F)(F)F)c2)[C@@H](c2ccc(F)cc2)c2c(C(=O)N3CCNC[C@@H]3C#N)nn(-c3ccccc3)c21 [Compound I-280] | ≤ 200 | ≤ 200 | ≤ 100 | +++ (MS Emax % adduct formation greater than 80.0 and less than or equal to 100.0) |  | 
